Assays:
[1] = biological target: T1, Serine/threonine-protein kinase ULK3 (Homo sapiens) (UniProt Q6PHR2); assay: Selectivity interaction (KinomeScan (DiscoverX)) EUB0001550a ULK3; conditions: at 1 µM
T1 sequence (whole entry): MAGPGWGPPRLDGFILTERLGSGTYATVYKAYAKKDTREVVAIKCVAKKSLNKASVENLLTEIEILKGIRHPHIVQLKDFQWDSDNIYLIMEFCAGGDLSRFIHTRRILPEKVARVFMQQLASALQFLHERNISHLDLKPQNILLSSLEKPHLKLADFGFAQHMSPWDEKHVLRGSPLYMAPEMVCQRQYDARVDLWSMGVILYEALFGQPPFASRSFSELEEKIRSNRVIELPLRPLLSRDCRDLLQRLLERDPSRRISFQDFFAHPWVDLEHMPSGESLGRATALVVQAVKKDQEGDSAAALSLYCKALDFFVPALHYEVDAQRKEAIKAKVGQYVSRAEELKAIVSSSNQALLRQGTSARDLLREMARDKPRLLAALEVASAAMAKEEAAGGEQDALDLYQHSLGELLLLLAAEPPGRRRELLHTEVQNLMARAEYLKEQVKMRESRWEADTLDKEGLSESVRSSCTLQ

[2] = biological target: Receptor-type tyrosine-protein kinase FLT3 (Homo sapiens) (UniProt P36888); assay: Selectivity interaction (ProQinase) EUB0000171b FLT3; conditions: at 1 µM
[3] = biological target: T2, Serine/threonine-protein kinase LATS2 (Homo sapiens) (UniProt Q9NRM7); assay: Selectivity interaction (KinomeScan (DiscoverX)) EUB0001079a LATS2; conditions: at 1 µM
T2 sequence (whole entry): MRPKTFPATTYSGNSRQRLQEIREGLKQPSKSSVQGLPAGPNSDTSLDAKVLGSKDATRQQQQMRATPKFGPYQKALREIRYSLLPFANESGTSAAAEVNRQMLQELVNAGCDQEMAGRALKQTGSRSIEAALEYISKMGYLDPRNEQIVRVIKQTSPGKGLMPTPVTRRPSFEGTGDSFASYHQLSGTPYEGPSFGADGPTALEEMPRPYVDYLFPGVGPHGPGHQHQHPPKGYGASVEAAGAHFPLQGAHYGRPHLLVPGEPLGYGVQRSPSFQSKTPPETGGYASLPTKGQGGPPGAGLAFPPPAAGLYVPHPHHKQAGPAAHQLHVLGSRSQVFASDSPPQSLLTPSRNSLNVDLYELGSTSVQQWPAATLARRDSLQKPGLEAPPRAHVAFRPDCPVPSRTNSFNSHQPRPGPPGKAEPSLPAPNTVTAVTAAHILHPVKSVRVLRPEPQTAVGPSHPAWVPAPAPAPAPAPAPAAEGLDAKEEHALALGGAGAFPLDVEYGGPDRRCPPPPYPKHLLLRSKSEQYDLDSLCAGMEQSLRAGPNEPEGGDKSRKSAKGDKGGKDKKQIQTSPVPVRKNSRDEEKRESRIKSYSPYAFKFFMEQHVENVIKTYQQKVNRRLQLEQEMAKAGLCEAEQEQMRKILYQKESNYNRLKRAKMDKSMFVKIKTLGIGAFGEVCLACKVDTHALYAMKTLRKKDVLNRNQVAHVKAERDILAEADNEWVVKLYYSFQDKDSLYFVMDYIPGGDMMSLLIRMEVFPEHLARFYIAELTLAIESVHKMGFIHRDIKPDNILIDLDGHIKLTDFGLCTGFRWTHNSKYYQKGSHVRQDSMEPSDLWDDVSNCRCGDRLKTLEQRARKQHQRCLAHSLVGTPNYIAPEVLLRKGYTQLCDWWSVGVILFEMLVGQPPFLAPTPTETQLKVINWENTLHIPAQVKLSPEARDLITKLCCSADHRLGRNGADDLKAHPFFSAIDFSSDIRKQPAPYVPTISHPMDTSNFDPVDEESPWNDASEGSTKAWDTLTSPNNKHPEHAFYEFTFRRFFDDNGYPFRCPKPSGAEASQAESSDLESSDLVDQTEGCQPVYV

[4] = biological target: T3, Muscle, skeletal receptor tyrosine-protein kinase (Homo sapiens) (UniProt O15146); assay: Selectivity interaction (KinomeScan (DiscoverX)) EUB0001049a MUSK; conditions: at 1 µM
T3 sequence (whole entry): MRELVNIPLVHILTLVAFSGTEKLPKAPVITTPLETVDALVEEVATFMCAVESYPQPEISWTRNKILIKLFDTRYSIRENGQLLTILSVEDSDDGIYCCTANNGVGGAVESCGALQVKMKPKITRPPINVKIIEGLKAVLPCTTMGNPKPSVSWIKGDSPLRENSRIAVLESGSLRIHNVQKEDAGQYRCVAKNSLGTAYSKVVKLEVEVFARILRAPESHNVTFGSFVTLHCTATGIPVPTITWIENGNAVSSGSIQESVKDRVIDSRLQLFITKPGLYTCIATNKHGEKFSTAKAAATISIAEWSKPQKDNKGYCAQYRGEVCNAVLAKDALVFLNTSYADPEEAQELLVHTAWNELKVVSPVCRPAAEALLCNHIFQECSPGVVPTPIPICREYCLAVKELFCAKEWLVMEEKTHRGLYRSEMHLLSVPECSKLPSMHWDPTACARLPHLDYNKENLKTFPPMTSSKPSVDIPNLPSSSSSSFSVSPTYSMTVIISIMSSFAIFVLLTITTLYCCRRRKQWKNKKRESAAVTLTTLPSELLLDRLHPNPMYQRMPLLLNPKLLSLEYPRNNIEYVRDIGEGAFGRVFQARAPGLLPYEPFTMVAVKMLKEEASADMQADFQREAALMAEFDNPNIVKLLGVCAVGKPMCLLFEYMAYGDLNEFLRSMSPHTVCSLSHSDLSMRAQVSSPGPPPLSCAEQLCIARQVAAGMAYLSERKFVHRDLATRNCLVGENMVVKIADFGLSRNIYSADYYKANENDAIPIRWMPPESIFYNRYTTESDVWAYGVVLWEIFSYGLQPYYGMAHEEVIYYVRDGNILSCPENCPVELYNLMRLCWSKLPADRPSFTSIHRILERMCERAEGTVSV

[5] = biological target: Mitogen-activated protein kinase 4 (Homo sapiens) (UniProt P31152); assay: Selectivity interaction (KinomeScan (DiscoverX)) EUB0000595a MAPK4; conditions: at 10 µM
[6] = biological target: MAP kinase-activated protein kinase 2 (Homo sapiens, UniProt P49137); assay: Selectivity interaction (Kinase screening (Nanosyn)) EUB0000604a MAPKAPK2
Chain of MAP kinase-activated protein kinase 2 (P49137 whole entry, looked up): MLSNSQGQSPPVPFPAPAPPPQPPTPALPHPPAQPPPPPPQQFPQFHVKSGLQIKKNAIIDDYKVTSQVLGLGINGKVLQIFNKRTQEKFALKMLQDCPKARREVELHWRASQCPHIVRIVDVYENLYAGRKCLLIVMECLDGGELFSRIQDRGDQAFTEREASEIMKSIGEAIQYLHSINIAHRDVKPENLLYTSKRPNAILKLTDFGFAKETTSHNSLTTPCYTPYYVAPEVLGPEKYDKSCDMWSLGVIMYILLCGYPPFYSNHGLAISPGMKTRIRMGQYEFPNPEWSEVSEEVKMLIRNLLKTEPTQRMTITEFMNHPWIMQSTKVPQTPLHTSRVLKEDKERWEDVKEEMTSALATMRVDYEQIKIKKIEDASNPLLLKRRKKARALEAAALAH

Chain of Mitogen-activated protein kinase 4 (Homo sapiens) (P31152 whole entry): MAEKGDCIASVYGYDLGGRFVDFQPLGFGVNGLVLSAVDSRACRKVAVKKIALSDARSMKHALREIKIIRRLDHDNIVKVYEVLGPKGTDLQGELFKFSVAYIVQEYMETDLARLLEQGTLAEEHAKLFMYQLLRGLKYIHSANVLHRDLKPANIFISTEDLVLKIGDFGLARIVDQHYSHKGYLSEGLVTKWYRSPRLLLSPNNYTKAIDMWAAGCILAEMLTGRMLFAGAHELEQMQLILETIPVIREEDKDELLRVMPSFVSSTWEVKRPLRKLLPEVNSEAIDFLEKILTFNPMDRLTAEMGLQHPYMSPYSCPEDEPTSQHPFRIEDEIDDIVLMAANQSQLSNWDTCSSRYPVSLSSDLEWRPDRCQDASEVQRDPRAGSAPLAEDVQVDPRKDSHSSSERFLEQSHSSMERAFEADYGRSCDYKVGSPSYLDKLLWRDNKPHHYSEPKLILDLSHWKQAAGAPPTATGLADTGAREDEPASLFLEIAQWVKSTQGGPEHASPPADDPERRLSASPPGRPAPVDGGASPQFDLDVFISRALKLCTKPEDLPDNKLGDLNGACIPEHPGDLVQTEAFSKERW
Chain of Receptor-type tyrosine-protein kinase FLT3 (Homo sapiens) (P36888 whole entry): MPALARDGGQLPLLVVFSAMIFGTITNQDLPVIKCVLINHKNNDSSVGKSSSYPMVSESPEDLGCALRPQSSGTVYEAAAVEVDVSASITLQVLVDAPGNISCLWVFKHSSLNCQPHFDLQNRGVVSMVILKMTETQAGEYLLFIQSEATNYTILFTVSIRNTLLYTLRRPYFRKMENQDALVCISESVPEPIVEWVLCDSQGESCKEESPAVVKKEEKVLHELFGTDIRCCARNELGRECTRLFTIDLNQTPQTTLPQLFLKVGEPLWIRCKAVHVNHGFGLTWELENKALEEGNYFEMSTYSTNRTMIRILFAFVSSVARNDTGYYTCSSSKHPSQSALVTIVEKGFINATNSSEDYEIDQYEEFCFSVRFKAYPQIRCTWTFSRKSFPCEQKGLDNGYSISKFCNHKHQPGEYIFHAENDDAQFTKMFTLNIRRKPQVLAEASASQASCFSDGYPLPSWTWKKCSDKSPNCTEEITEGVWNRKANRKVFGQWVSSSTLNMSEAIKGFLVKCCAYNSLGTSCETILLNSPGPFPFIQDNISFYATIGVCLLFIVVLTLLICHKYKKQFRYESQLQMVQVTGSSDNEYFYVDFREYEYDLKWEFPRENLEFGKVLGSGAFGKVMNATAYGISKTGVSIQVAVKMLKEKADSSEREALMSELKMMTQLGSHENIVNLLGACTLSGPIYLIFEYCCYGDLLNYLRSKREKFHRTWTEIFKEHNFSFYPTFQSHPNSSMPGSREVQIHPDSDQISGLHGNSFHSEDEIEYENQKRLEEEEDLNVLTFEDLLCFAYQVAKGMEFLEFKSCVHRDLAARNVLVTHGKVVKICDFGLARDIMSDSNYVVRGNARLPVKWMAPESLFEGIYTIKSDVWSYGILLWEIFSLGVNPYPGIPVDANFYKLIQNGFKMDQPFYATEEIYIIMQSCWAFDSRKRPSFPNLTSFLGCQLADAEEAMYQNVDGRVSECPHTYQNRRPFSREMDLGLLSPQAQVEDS

CN(C)CC#Cc1ccc2[nH]c3c(c2c1)-c1nc(N)ncc1CCC3
% of control [1]: 11%

C=CC(=O)Nc1cccc(C(=O)Nc2ccc(Nc3cc(-c4[nH]c(SC)nc4C)ccn3)cc2)c1
% of control [2]: 94%

Nc1cnc(N2CCc3cc(S(=O)(=O)Nc4c(F)cc(Cl)cc4F)cc(N4CCCC4=O)c32)nc1 [TP-020n]
% of control [3]: 100%

COc1cc(Nc2nc(C)cc(-c3cnn4nc(OC)ccc34)n2)cc(C(F)(F)F)c1
% of control [4]: 100%

COCC(=O)NC/C=C/c1ccc2ncnc(Nc3ccc(Oc4ccc(C)nc4)c(C)c3)c2c1 [CP-724714]
% of control [5]: 100%

Cc1cnc(Nc2ccc(F)cc2Cl)nc1-c1c[nH]c(C(=O)N[C@H](CO)c2cccc(Cl)c2)c1
% of inhibition [6]: 0%
